Measurements reported in PubChem BioAssay (NCI).
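Results reflect a 48-hour exposure of cells in 96-well plates to compound at five concentrations. TGI: total growth inhibition.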

Tests used:
Test in all cases: NCI-60 cell line screen, 48 h
A549 NSCLC = system: A549 NSCLC
CAKI-1 renal = system: CAKI-1 renal
HCC-2998 colon = system: HCC-2998 colon
HCT-116 colon = system: HCT-116 colon
MOLT-4 leukemia = system: MOLT-4 leukemia
NCI-H23 lung = system: NCI-H23 lung
OVCAR-5 ovarian = system: OVCAR-5 ovarian
RPMI-8226 leukemia = system: RPMI-8226 leukemia
SF-539 CNS = system: SF-539 CNS
SK-MEL-28 melanoma = system: SK-MEL-28 melanoma
SN12C renal = system: SN12C renal
SNB-75 CNS = system: SNB-75 CNS
SR leukemia = system: SR leukemia
TK-10 renal = system: TK-10 renal
ACHN renal = system: ACHN renal
KM12 colon = system: KM12 colon
MDA-MB-435 = system: MDA-MB-435
MDA-N = system: MDA-N
SF-295 CNS = system: SF-295 CNS
UACC-257 melanoma = system: UACC-257 melanoma

Structure (SMILES) | TGI (A549 NSCLC) [µM] | TGI (CAKI-1 renal) [µM] | TGI (HCC-2998 colon) [µM] | TGI (HCT-116 colon) [µM] | TGI (MOLT-4 leukemia) [µM] | TGI (NCI-H23 lung) [µM] | TGI (OVCAR-5 ovarian) [µM] | TGI (RPMI-8226 leukemia) [µM] | TGI (SF-539 CNS) [µM] | TGI (SK-MEL-28 melanoma) [µM] | TGI (SN12C renal) [µM] | TGI (SNB-75 CNS) [µM] | TGI (SR leukemia) [µM] | TGI (TK-10 renal) [µM] | TGI (ACHN renal) [µM] | TGI (KM12 colon) [µM] | TGI (MDA-MB-435) [µM] | TGI (MDA-N) [µM] | TGI (SF-295 CNS) [µM] | TGI (UACC-257 melanoma) [µM]
O=C(CC(=O)C(=O)CC(=O)OCc1ccccc1)OCc1ccccc1 | > 100 | > 100 | > 100 | > 100 | > 100 | > 100 | > 100 | > 100 | > 100 | > 100 | > 100 | > 100 | > 100 | > 100 | – | – | – | – | – | –
Cc1cc(C)c2c(=O)n(CN3CCN(c4ccccc4)CC3)sc2n1 | > 100 | 39.4 | > 100 | 35.1 | 58.7 | 85.2 | 49.2 | – | 37.5 | > 100 | 87 | 42.7 | – | > 100 | 35.2 | > 100 | > 100 | 60.4 | > 100 | > 100
Nc1ccc(-c2nc3cc(F)ccc3s2)cc1Br | > 100 | > 100 | 0.0345 | > 100 | > 100 | – | > 100 | > 100 | > 71.4 | > 100 | > 100 | 77.9 | – | – | > 100 | > 100 | > 100 | > 100 | > 100 | > 100
Nc1sccc1S(=O)(=O)c1ccsc1N | > 100 | > 100 | > 100 | > 100 | > 100 | > 100 | > 100 | > 100 | > 100 | > 100 | > 100 | > 100 | – | > 100 | > 100 | > 100 | > 100 | > 100 | > 100 | > 100
CC(=O)Oc1ccn2nc(C)c(Cc3c(C)nn4ccc(OC(C)=O)cc34)c2c1 | > 100 | > 100 | – | > 100 | > 100 | > 100 | > 100 | – | > 100 | > 100 | > 100 | > 100 | > 100 | > 100 | > 100 | > 100 | 50.4 | > 10 | 68.8 | > 100
CC1=NN(c2cccc(Cl)c2)C(=N/c2nc3ccccc3s2)/C1=C\C=C\c1ccccc1 | – | > 100 | – | > 100 | 3.48 | > 100 | > 100 | 81.2 | > 100 | > 100 | – | – | 25.9 | > 100 | 88.2 | > 100 | > 100 | > 100 | > 100 | > 100
Nn1c(-c2ccccc2Nc2ccccc2-c2n[nH]c(=S)n2N)n[nH]c1=S | – | – | > 50 | > 50 | > 50 | > 50 | > 50 | > 50 | > 50 | > 50 | – | > 50 | > 50 | > 50 | > 50 | > 50 | > 50 | – | > 50 | > 50
COC(=O)C(CCC1(C)OCCO1)C(C)=O (stereo not given) | > 100 | – | > 100 | > 100 | > 100 | > 100 | > 100 | – | > 100 | > 100 | > 100 | > 100 | > 100 | > 100 | > 100 | > 100 | – | – | > 100 | > 100
COC1=C(C)C(=O)C2C(C1=O)C(c1ccc(OC)c(OC)c1)[C@H]2C (stereo not given in full) | > 100 | > 100 | > 100 | – | > 100 | > 100 | > 100 | > 100 | > 100 | > 100 | – | > 100 | > 100 | > 100 | > 100 | > 100 | – | – | > 100 | –
Cc1cc2c(cc1Cl)SC(NN(C)C)=NS2(=O)=O | > 10 | > 10 | > 10 | > 10 | > 10 | > 10 | > 10 | > 10 | > 10 | > 10 | > 10 | > 10 | – | > 10 | > 10 | > 10 | > 10 | > 10 | > 10 | > 10
CN(C)c1ccc(/C=C2\C[C@H]3[C@@H]4CCC5=CC(=O)CC[C@]5(C)[C@H]4CC[C@]3(C)C2=O)cc1 | > 100 | > 100 | – | > 100 | > 100 | > 100 | > 100 | > 100 | > 100 | > 100 | > 100 | > 100 | > 100 | > 100 | > 100 | > 100 | – | > 100 | > 100 | 67.3
CCOC(=O)C(Cc1ccc(OC(=O)c2ccc(OC)cc2OC)cc1)NC(=O)C(F)(F)F (stereo not given) | > 100 | 75.8 | 31.2 | > 100 | > 100 | 45.1 | > 100 | 50.7 | 54.4 | – | > 100 | 33.1 | – | 42.7 | 30.9 | 72.8 | 34.9 | 49.3 | 91.5 | 29.4
Cc1ccc(/C=C/C(=O)c2sc(C(N)=S)nc2C)cc1 | > 100 | > 100 | > 100 | – | > 100 | > 100 | > 100 | > 100 | > 100 | > 100 | > 100 | > 100 | – | > 100 | > 100 | > 100 | – | – | > 100 | > 100
